Reference: PMC3446790 (Cellular signalling, 2010)
Entries after “also recorded” stand apart in the source; their conditions may differ.

Columns and labels:
sphingosine kinase 1 = conditions: cited from earlier work
C57BL/6 mice = assay: Whole blood lymphocyte counting in mice; format: in vivo; conditions: 1 mg/kg intraperitoneal
S1P1 [1] = target: T1, S1P1 (Homo sapiens, UniProt P21453); assay: Ca2+ mobilization; format: cell-based; conditions: Ca2+ mobilization, concentrations up to 10 μM
IEC-6 cells = assay: DNA fragmentation ELISA, camptothecin-induced apoptosis; format: cell-based, rat
P2Y10/Gα16 = P2Y10/Gα16 (Homo sapiens, UniProt O00398+P30679); assay: Antagonism of S1P-induced Ca2+ mobilization in CHO cells expressing P2Y10/Gα16; format: cell-based
recombinant ATX = recombinant ATX (Homo sapiens, UniProt Q13822); assay: ATX assay; format: biochemical; conditions: FS-3 substrate
S1P1-eGFP = S1P1-eGFP (Homo sapiens, UniProt P21453); format: cell-based; conditions: 100 nM, 30 min, HEK293
S1P2 [2] = target: T2, S1P2 (Homo sapiens, UniProt O95136); assay: Antagonism of S1P-induced Ca2+ mobilization in S1P2-expressing HTC4 cells; format: cell-based
S1P5 [3] = target: T3, S1P5 (Homo sapiens, UniProt Q9H228); assay: Ca2+ mobilization; format: cell-based; conditions: concentrations up to 10 μM
S1P4 [4] = target: T4, S1P4 (Homo sapiens, UniProt O95977); assay: Antagonism of S1P-induced Ca2+ mobilization in S1P4-expressing HTC4 cells; format: cell-based
T4 sequence (O95977 1-384): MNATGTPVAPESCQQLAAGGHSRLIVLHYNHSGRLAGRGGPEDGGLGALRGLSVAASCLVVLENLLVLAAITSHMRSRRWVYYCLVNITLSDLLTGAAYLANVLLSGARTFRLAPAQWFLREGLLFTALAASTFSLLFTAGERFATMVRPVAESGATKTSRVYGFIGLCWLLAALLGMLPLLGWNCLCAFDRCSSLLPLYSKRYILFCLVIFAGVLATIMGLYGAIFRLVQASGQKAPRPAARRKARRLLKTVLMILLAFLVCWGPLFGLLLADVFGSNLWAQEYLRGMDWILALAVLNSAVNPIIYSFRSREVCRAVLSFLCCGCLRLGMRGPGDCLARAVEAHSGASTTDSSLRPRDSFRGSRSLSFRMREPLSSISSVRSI

S1P4 [5] = target: T4, S1P4; assay: Ca2+ mobilization; format: cell-based; conditions: Ca2+ mobilization, concentrations up to 10 μM
S1P3 [6] = target: T5, S1P3 (Homo sapiens, UniProt Q99500); assay: Antagonism of S1P-induced Ca2+ mobilization in S1P3-expressing HTC4 cells; format: cell-based
S1P3 [7] = target: T5, S1P3; assay: Ca2+ mobilization; format: cell-based; conditions: Ca2+ mobilization, concentrations up to 10 μM
S1P2 [8] = target: T2, S1P2; assay: Ca2+ mobilization; format: cell-based; conditions: concentrations up to 10 μM
[9] = test system: ERK1/2 and AKT in IEC-6 cells; assay: Immunoblot analysis of ERK1/2 and AKT phosphorylation; format: cell-based, rat
LPA1,2,3,4,5 and GPR87 = assay: Ca2+ mobilization in cells transfected with LPA receptors; format: cell-based; conditions: data not shown
S1P1 [10] = target: T1, S1P1; assay: Antagonism of S1P-induced Ca2+ mobilization in S1P1-expressing HTC4 cells; format: cell-based
S1P5 [11] = target: T3, S1P5; assay: Antagonism of S1P-induced Ca2+ mobilization in S1P5-expressing HTC4 cells; format: cell-based
S1P1 [12] = target: T1, S1P1; assay: Receptor desensitization assay in S1P1-expressing HTC4 cells; format: cell-based; conditions: 300 nM, 2 h preincubation
[13] = shift of S1P dose response curve

T2 sequence (O95136 whole entry, species assumed): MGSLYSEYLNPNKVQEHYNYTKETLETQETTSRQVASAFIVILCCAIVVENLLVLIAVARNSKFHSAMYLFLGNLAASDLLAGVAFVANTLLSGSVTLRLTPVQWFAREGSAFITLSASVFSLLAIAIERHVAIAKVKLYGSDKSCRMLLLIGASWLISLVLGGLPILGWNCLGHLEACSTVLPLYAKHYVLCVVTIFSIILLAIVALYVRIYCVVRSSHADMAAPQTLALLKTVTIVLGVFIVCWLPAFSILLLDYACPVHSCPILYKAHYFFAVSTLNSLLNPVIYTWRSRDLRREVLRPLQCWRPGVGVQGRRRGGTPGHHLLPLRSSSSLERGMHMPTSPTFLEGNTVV
T3 sequence (Q9H228 whole entry, species assumed): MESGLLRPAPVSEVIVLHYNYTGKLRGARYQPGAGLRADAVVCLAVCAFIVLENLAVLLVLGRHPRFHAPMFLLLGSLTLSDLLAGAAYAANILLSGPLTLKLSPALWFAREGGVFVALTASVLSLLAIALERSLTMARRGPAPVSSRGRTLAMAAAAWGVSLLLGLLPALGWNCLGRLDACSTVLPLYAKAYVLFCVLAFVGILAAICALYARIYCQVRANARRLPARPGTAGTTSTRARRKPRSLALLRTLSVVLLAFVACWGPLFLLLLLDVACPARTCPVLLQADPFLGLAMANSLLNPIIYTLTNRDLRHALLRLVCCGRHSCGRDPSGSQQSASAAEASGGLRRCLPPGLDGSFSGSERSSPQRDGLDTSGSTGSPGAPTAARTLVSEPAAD
T5 sequence (Q99500 whole entry, species assumed): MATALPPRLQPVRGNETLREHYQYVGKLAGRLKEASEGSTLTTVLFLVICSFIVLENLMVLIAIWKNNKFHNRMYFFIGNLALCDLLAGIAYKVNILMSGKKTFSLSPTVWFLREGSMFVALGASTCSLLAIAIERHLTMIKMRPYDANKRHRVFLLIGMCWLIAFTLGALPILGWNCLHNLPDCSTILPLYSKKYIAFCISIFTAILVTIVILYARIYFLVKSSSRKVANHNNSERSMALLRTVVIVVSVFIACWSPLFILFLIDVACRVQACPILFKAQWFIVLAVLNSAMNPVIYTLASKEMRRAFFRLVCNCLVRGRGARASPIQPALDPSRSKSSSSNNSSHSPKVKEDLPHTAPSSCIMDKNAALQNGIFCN

In the case of `CCCCCCCCc1ccc(CC[C@](N)(/C=C/P(=O)(O)O)CO)cc1` [(S)-ene, (S)-FTY720-vinylphosphonate], the “inhibition of sphingosine kinase 1” value (sphingosine kinase 1) is listed as “inhibitor”, the “decrease in circulating lymphocytes” value (C57BL/6 mice; 6 h) is listed as “approximately 20%” and the “circulating lymphocyte counts at 24 h” value (C57BL/6 mice; 24 h) is listed as “restored to pretreatment levels; also recorded: no significant decrease”. For the same compound, the “S1P1 activation, agonist character (in words)” value (S1P1 [1]) was “did not activate”, the “effect of PTX treatment on the antiapoptotic action” value (IEC-6 cells; 100 ng/mL PTX overnight, 300 nM compound) was “partially inhibited” and the “concentration of maximal protection against DNA fragmentation” value (IEC-6 cells; 20 μM camptothecin 5 h, inverse bell-shape curve) was 300 nM. For the same compound, the “reduction in DNA fragmentation elicited by camptothecin” value (IEC-6 cells; 15 min pretreatment, 20 μM camptothecin 5 h) was “significant and dose-dependent reduction”, the “attenuation of DNA fragmentation at concentrations above 1 μM” value (IEC-6 cells; above 1 μM) was “no longer showed an attenuation” and the “inhibition of the S1P response, P2Y10” value (P2Y10/Gα16; 300 nM S1P) was “No inhibition at 30 mM (300 nM S1P)”. The “inhibitory effect on P2Y10 when co-applied with S1P” value (P2Y10/Gα16; concentrations up to 30 μM) was “no inhibitory effect”, the “mechanism of ATX inhibition” value (recombinant ATX) was “competitive” and the Ki (recombinant ATX; read-out: Ki, ATX, affinity for free enzyme) was 1000 nM. The S1P1-eGFP receptor internalization (S1P1-eGFP) was “failed to cause redistribution; also recorded: did not induce; also recorded: failed to cause receptor internalization”, the “antagonist character at S1P2” value (S1P2 [2]; S1P near EC70) was “partial antagonist” and the “maximal % inhibition of the S1P response, S1P2” value (S1P2 [2]; at 30, 30 nM S1P) was 40.0% inhibition at 30 mM (30 nM S1P). The “S1P5 activation (in words)” value (S1P5 [3]) was “failed to activate”, the “antagonist character at S1P4” value (S1P4 [4]; S1P near EC70) was “full antagonist” and the Ki (S1P4 [4]; read-out: Ki, S1P4, cotreated with 5 nM S1P, ± SD) was 1190 nM. For the same compound, the “S1P4 activation (in words)” value (S1P4 [5]) was “failed to activate”, the “antagonist character at S1P3” value (S1P3 [6]; S1P near EC70) was “full antagonist” and the “pKb, S1P3 (Schild analysis)” value (S1P3 [6]; average residual error 0.62) was 7.61 M. For the same compound, the Ki (S1P3 [6]; read-out: Ki, S1P3, cotreated with 10 nM S1P, ± SD) was 39 nM, the “mechanism of antagonism, S1P3” value (S1P3 [6]; [13]) was “competitive inhibition” and the “S1P3 activation (in words)” value (S1P3 [7]) was “inactive”. The “S1P2 activation (in words)” value (S1P2 [8]) was “failed to activate”, the “effect of overnight PTX treatment on ERK1/2 activation” value ([9]; 100 ng/mL PTX, S1P 300 nM 5 min, (S)- or (R)-ene 1 μM 10 min) was “no significant effect” and the “time of peak ERK1/2 and AKT phosphorylation” value ([9]; IEC-6 cells) was 5 to 15 min. The “ERK1/2 and AKT phosphorylation” value ([9]; IEC-6 cells, 100 nM) was “elicited ERK1/2 and AKT phosphorylation”, the “Ca2+ mobilization responses in cells transfected with LPA receptors” value (LPA1,2,3,4,5 and GPR87) was “unable to detect” and the “antagonist character at S1P1” value (S1P1 [10]; S1P near EC70) was “full antagonist”. For the same compound, the “pKb, S1P1 (Schild analysis)” value (S1P1 [10]; average residual error 1.09) was 7.10 M, the Ki (S1P1 [10]; read-out: Ki, S1P1, cotreated with 3 nM S1P, ± SD) was 384 nM and the “mechanism of antagonism, S1P1” value (S1P1 [10]; [13]) was “competitive inhibition”. The “antagonist character at S1P5” value (S1P5 [11]; S1P near EC70) was “partial antagonist”, the “maximal % inhibition of the S1P response, S1P5” value (S1P5 [11]; at 30, 30 nM S1P) was 60.0% inhibition at 30 mM (30 nM S1P) and the “desensitization of the S1P1 response to S1P after preincubation” value (S1P1 [12]) was “almost no effect; also recorded: did not induce”.
